According to patent US9156783B2, “Compounds for treating proliferative disorders” (Synta Pharmaceuticals Corp., priority 2006, dated 2015):

System: inducible human Hsp70
Experiment: Hsp70 RNA induction by quantitative PCR analysis in Ramos B cells
Assay type: cell-based
Settings: 500 nM compound, 6 hours; for % induction relative to Compound B: Compound B induction set to 100%; for fold induction at 0.5 µM: Homo sapiens, read-out: fold induction over DMSO
Procedure: The ability of the compounds of the invention to induce Hsp70 RNA induction by quantitative PCR analysis was examined. Ramos B cells were treated with 500 nM each compound for 6 hours and the RNA was isolated from the cells. Quantitative PCR was performed as described below:
Details for Quantitative PCR are as follows:
500 ng of RNA from each sample was used for cDNA synthesis using iScript cDNA Synthesis Kit (Biorad, Cat #170-8891). 1 ul of cDNA mixture was used with the iQ SYBR Green Supermix (Biorad, Cat#170-8882) to perform quantitative PCR in an iCycler machine (Biorad) using standard protocols. QPCR for each sample/time point was performed in duplicate. The following primers for inducible human Hsp70 and gapdh were used: […]
Ct values were obtained from the iCycler program and used in an equation (2^−ΔΔCT) for determining the amount of target relative to gapdh expression. This compares the relative expression of Hsp70 to the corresponding levels of gapdh in each sample. Duplicate wells were averaged. The amount of N-Malonyl-bis(N′-methyl-N′thiobenzoylhydrazide) (Compound B) induction of Hsp70 was set to 100% and the percent of induction of Hsp70 by the compounds of the invention was determined relative to 100%.

| SMILES | % induction relative to Compound B [%] | fold induction at 0.5 µM |
| --- | --- | --- |
| CNN=C(C(=O)NN(C)C(=S)c1ccccc1)C(=O)NN(C)C(=S)c1ccccc1 [Compound 71, N′1,N′3-dimethyl-2-(2-methylhydrazono)-N′1,N′3-di(phenylcarbonothioyl)-malonohydrazide] | 17.59 | 46.9 |
| CN(NC(=O)CS(=O)(=O)NN(C)C(=S)c1ccccc1)C(=S)c1ccccc1 [Compound 68, N′-Methyl-2-(2-methyl-2-(phenylcarbonothioyl)hydrazinyl)-2-oxo-N′-(phenylcarbonothioyl)ethanesulfonohydrazide] | 11.78 | 29.3 |
| CN(NC(=O)CC(=O)NN(C)/C(=N/S(C)(=O)=O)c1ccccc1)/C(=N/S(C)(=O)=O)c1ccccc1 [Compound 67, N′1,N′3-bis(methanesulfonimino(phenyl)methyl)-N′1,N′3-dimethylmalonohydrazide] | 0.75 | 1.87 |
| COP(=O)(CP(=O)(NN(C)C(=O)c1ccccc1)OC)NN(C)C(=O)c1ccccc1 (stereo not shown) [Compound 33] | 0.14 | 0.35 |
| COP(=O)(CP(=O)(NN(C)C(=S)c1ccccc1)OC)NN(C)C(=S)c1ccccc1 (stereo not shown) [Compound 30, Dimethyl N,N′-methylenebis(N′-methyl-N′(phenylcarbonothioyl)-phosphonohydrazidate)] | 0.34 | 0.85 |
